Patent US20230330040A1, “IMMUNOLOGICAL EFFECTS OF METABOLITES” (The Regents of the University of California, priority 2020, published 2023)
Entries after “also recorded” stand apart in the source; their conditions may differ.

What was measured:
[1] = test system: C. elegans var. Bristol (N2); experiment: C. elegans lifespan analysis; assay type: in vivo; conditions: for lifespan extension versus untreated control worms / lifespan versus spermidine treated worms: lifelong treatment; for lifespan extension versus untreated control worms: 0.2 mM spermidine, 0.5 mM 1-MNA, 0.01 and 0.1 mM PEA, 0.01 mM OEA, b30 prints 100 μM spermidine, 100 μM 1-MNA; for lifespan extension versus Control: lifelong exposure
Procedure: C. elegans var. Bristol (N2), was used as the wild-type strain. Strains were maintained and lifespan assays were performed at 20° C. Twenty-four hours after seeding Escherichia coli (OP50) bacteria on standard NGM plates, the bacteria were killed by 4 min exposure to UV irradiation using a Stratalinker UV crosslinker (Stratagene, Model 2400). The following concentrations of compounds were used: 0.2 mM spermidine, 0.5 mM 1-MNA, 0.01 and 0.1 mM PEA, and 0.01 mM OEA. Spermidine and MNA were diluted into 100 μl sterilized water and applied to the top of the agar medium (3 ml NGM plates). Plates were then gently swirled to allow compounds to spread to the entire NGM surface. Identical solutions of compound-free water were used for the control plates. Plates were then allowed to dry overnight. The procedure was repeated each time worms were transferred to fresh plates (every 2-4 days). PEA and OEA were added to cooled agar, prior to solidification; for the combination, all compounds were added to cooled agar and plates stored at 4° C. Synchronous worm populations were generated by hypochlorite treatment of gravid adults and life span assays were performed beginning at the L4 stage (Day 0). Seven to eight plates of 15 worms each were exposed to the indicated compounds. Animals were transferred to fresh plates every 2 days for the first week and then 3-4 days thereafter. Worms were examined for touch-provoked movement and pharyngeal pumping, until death. Worms that died due to desiccation from crawling on the edge of the plates, were censored. Kaplan-Meier survival curves were created to evaluate C. elegans lifespan. The R package survival (3.1.8) was used to fit the Cox proportional hazards regression model to evaluate differences of survivals between each treatment group versus control.

[2] = test system: total cyclooxygenase (COX) activity; experiment: COX activity assay in LPS stimulated THP-1 macrophage; assay type: cell-based, human; conditions: spermidine 100 μM, 1-MNA 100 μM, PEA 10 nM, OEA 10 μM, Combo = all four
Procedure: For certain assays requiring high cellular concentrations beyond what was feasible to isolate from human volunteers, THP-1 monocytes (ATCC, TIB-202) were cultured in RPMI 1640, 10% FBS, lx PSG and differentiated into M0 macrophage using 100 nM phorbol 12-myristate-13-acetate (PMA) for 2 days followed by incubation with clean RPMI, 10% FBS, 1×PSG for 1 day.
The effect of treatment with participant plasma and individual metabolites on the total cellular COX activity of THP-1 macrophage was measured using a commercially available kit (Cayman Chemical, 760151). In order to induce COX-2 expression, THP-1 macrophage were incubated with 10 ng/mL of lipopolysaccharide (LPS) (Sigma, LPS25) in RPMI, 1×PSG along with 20% participant plasma, or in RMPI, 10% FBS, 1×PSG either alone as a positive control or with isolated metabolites overnight (approximately 18 hrs) before measuring total COX activity from cell lysates. A negative control of macrophage in RPMI, 10% FBS, 1×PSG without LPS was also performed. (Inter CV: 5.4, Intra CV: 12.3)

C[n+]1cccc(C(N)=O)c1 [1-MNA, 1-methylnicotinamide] was tested, and the “lifespan extension versus untreated control worms” value [1] was “Significant lifespan extension was observed for all metabolites except 1-MNA”.

In the case of CCCCCCCC/C=C\CCCCCCCC(=O)NCCO [OEA, oleoylethanolamide], the “lifespan versus spermidine treated worms” value [1] was “significantly increased lifespan” and the “lifespan extension versus untreated control worms” value [1] was “significantly increased lifespan extension; also recorded: Significant lifespan extension”.

In the case of CCCCCCCCCCCCCCCC(=O)NCCO [PEA, palmitoylethanolamide], the “total COX activity versus vehicle treated positive control” value [2] was “potent inhibitor of COX activity”, the “lifespan extension versus Control” value ([1]; PEA 10 μM (lower concentration)) was “most effective at increasing lifespan; also recorded: Significant lifespan extension” and the “lifespan extension versus Control” value ([1]; PEA 100 μM) was “Significant lifespan extension”. For the same compound, the “lifespan versus spermidine treated worms” value [1] was “significantly increased lifespan” and the “lifespan extension versus untreated control worms” value [1] was “significantly increased lifespan extension”.

In the case of NCCCCNCCCN [spermidine], the “lifespan extension versus untreated control worms” value [1] was “significantly increased lifespan extension; also recorded: Significant lifespan extension”.
